{"source": "PubChem BioAssay (NCI)", "assay_in_all_cases": "NCI tumour cell line growth inhibition, 48 h", "key": {"NCI-H460 lung": {"system": "NCI-H460 lung"}, "NCI-H226 lung": {"system": "NCI-H226 lung"}, "OVCAR-3 ovarian": {"system": "OVCAR-3 ovarian"}, "COLO 205 colon": {"system": "COLO 205 colon"}, "UACC-257 melanoma": {"system": "UACC-257 melanoma"}, "HT29 colon": {"system": "HT29 colon"}, "SK-MEL-5 melanoma": {"system": "SK-MEL-5 melanoma"}, "CAKI-1 renal": {"system": "CAKI-1 renal"}, "SF-539 CNS": {"system": "SF-539 CNS"}, "ACHN renal": {"system": "ACHN renal"}, "HOP-92 NSCLC": {"system": "HOP-92 NSCLC"}, "MCF7 breast": {"system": "MCF7 breast"}, "UACC-62 melanoma": {"system": "UACC-62 melanoma"}, "T-47D breast": {"system": "T-47D breast"}, "786-0 renal": {"system": "786-0 renal"}, "PC-3 prostate": {"system": "PC-3 prostate"}, "SN12C renal": {"system": "SN12C renal"}, "RXF 393 renal": {"system": "RXF 393 renal"}, "MDA-MB-435": {"system": "MDA-MB-435"}, "UO-31 renal": {"system": "UO-31 renal"}, "HCC-2998 colon": {"system": "HCC-2998 colon"}, "SNB-75 CNS": {"system": "SNB-75 CNS"}, "SW-620 colon": {"system": "SW-620 colon"}, "HS 578T breast": {"system": "HS 578T breast"}, "SR leukemia": {"system": "SR leukemia"}, "DU-145 prostate": {"system": "DU-145 prostate"}, "TK-10 renal": {"system": "TK-10 renal"}, "IGROV1 ovarian": {"system": "IGROV1 ovarian"}, "MOLT-4 leukemia": {"system": "MOLT-4 leukemia"}}, "note": "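Five compound concentrations were applied to cells in 96-well plates for 48 hours; endpoints were derived by simple linear interpolation of the resulting dose-response curve. GI50 = concentration required for 50% inhibition of growth. TGI: concentration producing complete growth inhibition.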"}
{"smiles": "C/C(=C(/c1ccc(O)cc1)c1ccc(OCCN2CCCCCC2)cc1)c1ccccc1", "values": [{"measurement": "TGI", "setting": "NCI-H460 lung", "value": "> 100", "unit": "µM"}, {"measurement": "GI50", "setting": "NCI-H226 lung", "value": "> 100", "unit": "µM"}, {"measurement": "TGI", "setting": "NCI-H226 lung", "value": "> 100", "unit": "µM"}, {"measurement": "GI50", "setting": "OVCAR-3 ovarian", "value": "> 100", "unit": "µM"}, {"measurement": "TGI", "setting": "OVCAR-3 ovarian", "value": "> 100", "unit": "µM"}, {"measurement": "GI50", "setting": "COLO 205 colon", "value": 17.9, "unit": "µM"}, {"measurement": "TGI", "setting": "COLO 205 colon", "value": 34.4, "unit": "µM"}, {"measurement": "GI50", "setting": "UACC-257 melanoma", "value": 48.2, "unit": "µM"}, {"measurement": "TGI", "setting": "UACC-257 melanoma", "value": "> 100", "unit": "µM"}, {"measurement": "GI50", "setting": "HT29 colon", "value": 27.7, "unit": "µM"}, {"measurement": "TGI", "setting": "HT29 colon", "value": "> 100", "unit": "µM"}, {"measurement": "GI50", "setting": "SK-MEL-5 melanoma", "value": 66.1, "unit": "µM"}, {"measurement": "TGI", "setting": "SK-MEL-5 melanoma", "value": "> 100", "unit": "µM"}, {"measurement": "GI50", "setting": "CAKI-1 renal", "value": 65.9, "unit": "µM"}, {"measurement": "TGI", "setting": "CAKI-1 renal", "value": "> 100", "unit": "µM"}, {"measurement": "GI50", "setting": "SF-539 CNS", "value": 61.3, "unit": "µM"}, {"measurement": "TGI", "setting": "SF-539 CNS", "value": "> 100", "unit": "µM"}, {"measurement": "GI50", "setting": "ACHN renal", "value": "> 100", "unit": "µM"}, {"measurement": "TGI", "setting": "ACHN renal", "value": "> 100", "unit": "µM"}, {"measurement": "GI50", "setting": "HOP-92 NSCLC", "value": 61.8, "unit": "µM"}, {"measurement": "TGI", "setting": "HOP-92 NSCLC", "value": "> 100", "unit": "µM"}, {"measurement": "GI50", "setting": "MCF7 breast", "value": 0.0615, "unit": "µM"}, {"measurement": "TGI", "setting": "MCF7 breast", "value": "> 100", "unit": "µM"}, {"measurement": "GI50", "setting": "UACC-62 melanoma", "value": "> 100", "unit": "µM"}, {"measurement": "TGI", "setting": "UACC-62 melanoma", "value": "> 100", "unit": "µM"}, {"measurement": "GI50", "setting": "T-47D breast", "value": 11.5, "unit": "µM"}, {"measurement": "TGI", "setting": "T-47D breast", "value": "> 100", "unit": "µM"}, {"measurement": "GI50", "setting": "786-0 renal", "value": 27.1, "unit": "µM"}, {"measurement": "TGI", "setting": "786-0 renal", "value": "> 100", "unit": "µM"}, {"measurement": "GI50", "setting": "PC-3 prostate", "value": 57.9, "unit": "µM"}, {"measurement": "TGI", "setting": "PC-3 prostate", "value": "> 100", "unit": "µM"}, {"measurement": "GI50", "setting": "SN12C renal", "value": "> 100", "unit": "µM"}, {"measurement": "TGI", "setting": "SN12C renal", "value": "> 100", "unit": "µM"}, {"measurement": "GI50", "setting": "RXF 393 renal", "value": 31.2, "unit": "µM"}, {"measurement": "TGI", "setting": "RXF 393 renal", "value": "> 100", "unit": "µM"}, {"measurement": "GI50", "setting": "MDA-MB-435", "value": "> 100", "unit": "µM"}, {"measurement": "TGI", "setting": "MDA-MB-435", "value": "> 100", "unit": "µM"}, {"measurement": "GI50", "setting": "UO-31 renal", "value": 57.5, "unit": "µM"}, {"measurement": "TGI", "setting": "UO-31 renal", "value": "> 100", "unit": "µM"}, {"measurement": "GI50", "setting": "HCC-2998 colon", "value": 34.1, "unit": "µM"}, {"measurement": "TGI", "setting": "HCC-2998 colon", "value": "> 100", "unit": "µM"}, {"measurement": "GI50", "setting": "SNB-75 CNS", "value": "> 100", "unit": "µM"}, {"measurement": "TGI", "setting": "SNB-75 CNS", "value": "> 100", "unit": "µM"}, {"measurement": "GI50", "setting": "SW-620 colon", "value": 25.5, "unit": "µM"}, {"measurement": "TGI", "setting": "SW-620 colon", "value": 75.5, "unit": "µM"}, {"measurement": "GI50", "setting": "HS 578T breast", "value": 60.7, "unit": "µM"}, {"measurement": "TGI", "setting": "HS 578T breast", "value": "> 100", "unit": "µM"}, {"measurement": "GI50", "setting": "SR leukemia", "value": 22, "unit": "µM"}, {"measurement": "TGI", "setting": "SR leukemia", "value": 69.6, "unit": "µM"}, {"measurement": "GI50", "setting": "DU-145 prostate", "value": "> 100", "unit": "µM"}, {"measurement": "TGI", "setting": "DU-145 prostate", "value": "> 100", "unit": "µM"}, {"measurement": "GI50", "setting": "TK-10 renal", "value": "> 100", "unit": "µM"}, {"measurement": "TGI", "setting": "TK-10 renal", "value": "> 100", "unit": "µM"}, {"measurement": "GI50", "setting": "IGROV1 ovarian", "value": "> 100", "unit": "µM"}, {"measurement": "TGI", "setting": "IGROV1 ovarian", "value": "> 100", "unit": "µM"}, {"measurement": "GI50", "setting": "MOLT-4 leukemia", "value": 32.6, "unit": "µM"}, {"measurement": "TGI", "setting": "MOLT-4 leukemia", "value": "> 100", "unit": "µM"}]}
